Measured values taken from patent publication US10376499B2, “Combination therapy for treatment of resistant bacterial infections” (priority 2014, dated 2019).

Experiments:
Escherichia coli = experiment: MIC, recent Enterobacteriaceae clinical isolates: Escherichia coli (Examples 7, 11); settings: Escherichia coli
A. baumannii [1] = experiment: MIC90 of common antibiotics+compound 1, 196 contemporary clinical isolates of A. baumannii (Example 4); settings: B-lactam + Cmpd 1 (4 μg/mL)
Enterobacter cloacae = experiment: MIC, recent Enterobacteriaceae clinical isolates: Enterobacter cloacae (Examples 7, 11); assay type: cell-based
Enterobacteriaceae = experiment: organism not typed; assay type: cell-based
Citrobacter spp = experiment: MIC, recent Enterobacteriaceae clinical isolates: Citrobacter spp (Examples 7, 11); assay type: cell-based; settings: Citrobacter spp, N 7
Klebsiella pneumoniae = experiment: MIC, recent Enterobacteriaceae clinical isolates: Klebsiella pneumoniae (Examples 7, 11)
A. baumannii [2] = experiment: MIC, 20 diverse recent strains of A. baumannii (Example 10); assay type: cell-based, Acinetobacter baumannii; settings: N 20 A. baumannii strains
A. baumannii [3] = experiment: MIC by broth microdilution (CLSI), panel of 60 A. baumannii clinical isolates (Example 1)
[4] = strain ARC2598, OXA*, TEM-1, OXA-113
[5] = strain ARC2635, OXA-65, OXA-40, TEM-1
[6] = strain ARC2636, OXA-65, OXA-40, TEM-1
[7] = strain ARC2681, OXA-40, TEM-1, OXA-132
[8] = strain ARC2778, OXA-40, TEM-1, OXA-65
[9] = strain ARC2779 (A. baumannii/calcoaceticus complex), OXA-2, VIM-2
[10] = strain ARC2780 (A. baumannii/calcoaceticus complex), OXA*, OXA-2, IMP-1
[11] = strain ARC2782, OXA-66, OXA-23, TEM-1, PER-1
[12] = strain ARC3484, TEM-1, OXA-23, OXA-64
[13] = strain ARC3486, OXA-72, OXA-66, TEM-1
[14] = strain ARC3487, OXA-20, OXA-58, OXA-66
[15] = strain ARC3490, TEM-1+, PSE-2, OXA-69
[16] = strain ARC3491 (A. baumannii/calcoaceticus complex), OXA-215
[17] = strain ARC3492, OXA-40, OXA-132, TEM-1
[18] = strain ARC3495, OXA-40, OXA-109
[19] = strain ARC3513, TEM-1, OXA-23, OXA-65
[20] = strain ARC3658, OXA-66, PER-1, TEM-1, OXA-23
[21] = strain ARC3882, OXA-23, NDM-1, OXA-10*
[22] = strain ARC5073, OXA-23, TEM-1, OXA-64, PER-1
[23] = strain ARC5074, GES*, TEM-1, OXA-51
[24] = strain ARC5076, TEM-1, OXA-23, OXA-66
[25] = strain ARC5084, IMP-4(B), OXA-58, OXA-65
[26] = strain ARC5086, OXA*, TEM-1, OXA-72, OXA-66
[27] = strain ARC5088, OXA-20, OXA-58, OXA-66
[28] = strain ARC5089, PER*, TEM-1, OXA-23, OXA-66

C[C@@H](O)[C@H]1C(=O)N2C(C(=O)O)=C(SCCNC=N)C[C@H]12 [Imipenem, (5R,6S)-3-[[2-(formimidoylamino)ethyl]thio]-6-[(R)-1-hydroxyethyl]-7-oxo-1-azabicyclo[3.2.0]hept-2-ene-2-carboxylic acid]
0.25 µg/mL: MIC50 (Escherichia coli) | MIC50 (Klebsiella pneumoniae) | MIC Min (A. baumannii [2])
16 µg/mL: MIC90 (A. baumannii [1])
0.5 µg/mL: MIC90 (Escherichia coli) | MIC50 (Enterobacter cloacae; N 10, read-out: MIC50) | MIC50 (Enterobacteriaceae) | MIC50 (Citrobacter spp; read-out: MIC50)
64 µg/mL: MIC50 (A. baumannii [2])
4 µg/mL: MIC90 (Enterobacteriaceae) | MIC90 (Citrobacter spp; read-out: MIC90)
8 µg/mL: MIC90 (Klebsiella pneumoniae)
> 64 µg/mL: MIC90 (A. baumannii [2]) | MIC Max (A. baumannii [2])
1 µg/mL: MIC90 (Enterobacter cloacae; N 10)

CCN1CCN(C(=O)N[C@@H](C(=O)N[C@@H]2C(=O)N3[C@@H]2SC(C)(C)[C@@H]3C(=O)O)c2ccccc2)C(=O)C1=O [Piperacillin]
32 µg/mL: MIC90 (A. baumannii [1])

colistin
8 µg/mL: MIC (A. baumannii [3]; strain ARC5091, OXA-82, OXA-23)
1 µg/mL: MIC (A. baumannii [3]; [19]) | MIC (A. baumannii [3]; strain ARC5085, OXA*, TEM-1)
>32 µg/mL: MIC (A. baumannii [3]; strain ARC5092, OXA-23, OXA-64)
2 µg/mL: MIC (A. baumannii [3]; strain ARC3488, OXA*, OXA-68)
0.5 µg/mL: MIC (A. baumannii [3]; strain ARC593, OXA-98) | MIC (A. baumannii [3]; strain ARC2058, OXA-95) | MIC (A. baumannii [3]; strain ARC2777, OXA-172, TEM-1) | MIC (A. baumannii [3]; [15]) | MIC (A. baumannii [3]; [16]) | MIC (A. baumannii [3]; strain ARC3494, OXA-65) | MIC (A. baumannii [3]; strain ARC3657, OXA-130) | MIC (A. baumannii [3]; strain ARC5077, OXA*, OXA-72) | MIC (A. baumannii [3]; strain ARC5082, OXA-66, OXA-23)
4 µg/mL: MIC (A. baumannii [3]; [10])
32 µg/mL: MIC (A. baumannii [3]; strain ARC3493, OXA-40, OXA-66)
0.125 µg/mL: MIC (A. baumannii [3]; strain ARC2461, OXA-66, TEM-1) | MIC (A. baumannii [3]; strain ARC2462, TEM-1, OXA-66) | MIC (A. baumannii [3]; [6]) | MIC (A. baumannii [3]; strain ARC2675, SHV-5, OXA-113) | MIC (A. baumannii [3]; [11]) | MIC (A. baumannii [3]; strain ARC2788, OXA-65, TEM-1) | MIC (A. baumannii [3]; [12]) | MIC (A. baumannii [3]; [21]) | MIC (A. baumannii [3]; [22]) | MIC (A. baumannii [3]; [23]) | MIC (A. baumannii [3]; strain ARC5079, OXA-72, OXA-65) | MIC (A. baumannii [3]; strain ARC5081, OXA-94, OXA-23) | MIC (A. baumannii [3]; strain ARC5083, OXA-66, OXA-23) | MIC (A. baumannii [3]; [25]) | MIC (A. baumannii [3]; [26]) | MIC (A. baumannii [3]; [27]) | MIC (A. baumannii [3]; [28])
0.25 µg/mL: MIC (A. baumannii [3]; [4]) | MIC (A. baumannii [3]; [5]) | MIC (A. baumannii [3]; strain ARC2674, SHV-5, OXA-113) | MIC (A. baumannii [3]; [7]) | MIC (A. baumannii [3]; strain ARC2682, SHV-5, OXA-113) | MIC (A. baumannii [3]; [8]) | MIC (A. baumannii [3]; [9]) | MIC (A. baumannii [3]; strain ARC3485, OXA-82) | MIC (A. baumannii [3]; [13]) | MIC (A. baumannii [3]; [14]) | MIC (A. baumannii [3]; strain ARC3489, OXA*, OXA-68) | MIC (A. baumannii [3]; [17]) | MIC (A. baumannii [3]; [18]) | MIC (A. baumannii [3]; strain ARC3515, OXA-64, OXA-58) | MIC (A. baumannii [3]; [20]) | MIC (A. baumannii [3]; strain ARC3659, OXA-23, OXA*) | MIC (A. baumannii [3]; strain ARC5075, SHV-5, OXA-113) | MIC (A. baumannii [3]; [24]) | MIC (A. baumannii [3]; strain ARC5080, OXA-71, OXA-40) | MIC (A. baumannii [3]; strain ARC5087, OXA-66, OXA-23)

gentamycin
0.125 µg/mL: MIC (A. baumannii [3]; [23])
16 µg/mL: MIC (A. baumannii [3]; strain ARC2777, OXA-172, TEM-1) | MIC (A. baumannii [3]; strain ARC2788, OXA-65, TEM-1) | MIC (A. baumannii [3]; [15])
1 µg/mL: MIC (A. baumannii [3]; strain ARC2058, OXA-95) | MIC (A. baumannii [3]; strain ARC3485, OXA-82)
0.25 µg/mL: MIC (A. baumannii [3]; strain ARC3494, OXA-65) | MIC (A. baumannii [3]; strain ARC3657, OXA-130) | MIC (A. baumannii [3]; strain ARC5081, OXA-94, OXA-23)
0.5 µg/mL: MIC (A. baumannii [3]; [22]) | MIC (A. baumannii [3]; strain ARC5082, OXA-66, OXA-23)
4 µg/mL: MIC (A. baumannii [3]; strain ARC3515, OXA-64, OXA-58)
2 µg/mL: MIC (A. baumannii [3]; [4]) | MIC (A. baumannii [3]; [16])
>32 µg/mL: MIC (A. baumannii [3]; strain ARC2461, OXA-66, TEM-1) | MIC (A. baumannii [3]; strain ARC2462, TEM-1, OXA-66) | MIC (A. baumannii [3]; [5]) | MIC (A. baumannii [3]; [6]) | MIC (A. baumannii [3]; strain ARC2675, SHV-5, OXA-113) | MIC (A. baumannii [3]; [7]) | MIC (A. baumannii [3]; strain ARC2682, SHV-5, OXA-113) | MIC (A. baumannii [3]; [8]) | MIC (A. baumannii [3]; [9]) | MIC (A. baumannii [3]; [10]) | MIC (A. baumannii [3]; [11]) | MIC (A. baumannii [3]; [12]) | MIC (A. baumannii [3]; [13]) | MIC (A. baumannii [3]; strain ARC3488, OXA*, OXA-68) | MIC (A. baumannii [3]; strain ARC3489, OXA*, OXA-68) | MIC (A. baumannii [3]; [17]) | MIC (A. baumannii [3]; strain ARC3493, OXA-40, OXA-66) | MIC (A. baumannii [3]; [18]) | MIC (A. baumannii [3]; [19]) | MIC (A. baumannii [3]; [20]) | MIC (A. baumannii [3]; strain ARC3659, OXA-23, OXA*) | MIC (A. baumannii [3]; [21]) | MIC (A. baumannii [3]; strain ARC5075, SHV-5, OXA-113) | MIC (A. baumannii [3]; strain ARC5077, OXA*, OXA-72) | MIC (A. baumannii [3]; strain ARC5080, OXA-71, OXA-40) | MIC (A. baumannii [3]; strain ARC5083, OXA-66, OXA-23) | MIC (A. baumannii [3]; [25]) | MIC (A. baumannii [3]; strain ARC5085, OXA*, TEM-1) | MIC (A. baumannii [3]; [26]) | MIC (A. baumannii [3]; strain ARC5087, OXA-66, OXA-23) | MIC (A. baumannii [3]; [28]) | MIC (A. baumannii [3]; strain ARC5091, OXA-82, OXA-23) | MIC (A. baumannii [3]; strain ARC5092, OXA-23, OXA-64)
8 µg/mL: MIC (A. baumannii [3]; strain ARC593, OXA-98) | MIC (A. baumannii [3]; strain ARC2674, SHV-5, OXA-113) | MIC (A. baumannii [3]; [14]) | MIC (A. baumannii [3]; [24]) | MIC (A. baumannii [3]; strain ARC5079, OXA-72, OXA-65) | MIC (A. baumannii [3]; [27])
